Laboratory results: a melting point compilation (Tetko et al.; mined from patent text by program, amines drawn as free bases though some values may be those of a salt)

Compound `CC(C)Cn1c(=O)n(C)c(=O)c2c(Sc3nnc[nH]3)c(Cc3csc4ccccc34)sc21` has a melting point of 237 to 238 °C.
`COC(CC1OCC(Br)([N+](=O)[O-])CO1)OC` (configuration not stated) showed a melting point of 95 to 97 °C.
`CC(N)C1CCC(C(=O)Nc2ccncc2)CC1` (configuration not stated) showed a melting point of 286 to 287 °C.
Work on `O=C(O)Cn1cc(C(=O)O)c(=O)c2cc(O)ccc(=O)c21` yielded a melting point greater than 250 °C.
In the case of `CS(=O)(=O)N(c1cc2c(cc1Oc1ccccc1)C(C#N)CC2)S(C)(=O)=O` (configuration not stated), the melting point was 200 °C.
In the case of `Nc1nc2ccc3ccc(CNc4ccc([N+](=O)[O-])cc4)cc3c2c(=O)[nH]1`, the melting point was greater than 230 °C.
In the case of `CCOCCCN(C)Cc1ccc(NC(=O)C2=Cc3cc(-c4ccc(OCC)cc4)ccc3S(=O)(=O)CC2)cc1`, the melting point was 197 to 198 °C.
In the case of `COC(=O)c1nn(-c2cccc(C(F)(F)F)c2)cc(OC)c1=O`, the melting point was 169 to 170 °C.
Compound `Cc1oc(-c2ccccc2)nc1CCCCCOC(C)(C)C(=O)O` has a melting point of 66 to 68 °C.
For `CC(C)(c1ccc(-c2nc(Nc3ccc(F)cc3)ncc2C#N)cc1)N1CCCC1`, the melting point was 124 °C.
In the case of `CNC1(c2ccccc2Cl)C(=O)N(S(=O)(=O)c2ccc(NC(=O)c3ccccc3Cl)cc2)c2ccc(Cl)cc21` (configuration not stated), the melting point was 221 to 222 °C.
`CCCCc1nc2c(N)nc3ccccc3c2n1CCCCS(C)=O` (configuration not stated) showed a melting point of 126 to 128 °C.
In the case of `Cc1c(CNCc2ccccc2)[nH]c(=O)c2c1ccc1nc(Nc3c(Cl)cccc3Cl)n(C)c12`, the melting point was 231 to 234 °C.
`CNC(=O)c1cc(Cl)cc(C)c1N` gave a melting point of 141 to 143 °C.
In the case of `Nc1ccccc1Oc1ncc(C(F)(F)F)cc1Cl`, the melting point was 133 to 135 °C.
With `Cc1nnc(COc2ccc(Oc3ccccc3)cc2)o1` the melting point was 78 to 79 °C.
Compound `O=C(O)CN1C(=O)C(=Cc2ccc(CO)o2)SC1=S` has a melting point of 206 to 209 °C.
Compound `Cc1csc(CC(=O)O)c1` has a melting point of 49 °C.
`Cc1cc(C(=O)O)ccc1-c1c(C)cccc1C` showed a melting point of 172 to 173 °C.
In the case of `CCOC(=O)c1c(C(C)C)csc1N/C=C(\C#N)C(=O)OC(C)(C)C`, the melting point was 93 to 94 °C.
`O=CN1CCN(c2cc3c(cc2F)c(=O)c(C(=O)O)c2sccn23)CC1` gave a melting point of 335 to 336 °C.
Work on `C[C@@H](NC(=O)[C@@H](NCc1nccn1C)C(C)(C)C)C(C)(C)C` yielded a melting point of 131 to 132 °C.
`O=c1[nH]c2c(Cl)ncnc2n1CCN1CCC(Nc2nc3ccccc3n2Cc2ccc(F)cc2)CC1` showed a melting point of 266 °C.
For `CCC(=O)OC1CCC2C3CCC4=CC(=O)CCC4(CO)C3CCC12C` (configuration not stated), the melting point was 160 to 162 °C.
For `O=C1C=C(C(F)(F)F)N(Br)CN1c1ccc(C(F)(F)F)cn1`, the melting point was 142 to 143 °C.
`COC(=O)CCC(Oc1cccc2c1cc(C)n2Cc1ccccc1)C(=O)OC` (configuration not stated) gave a melting point of 139 to 141 °C.
Work on `CN1c2ccc(S(=O)(=O)c3ccccc3)cc2C2C[C@H](N)CCC21` (some centres not stated) yielded a melting point of 217 to 219 °C.
Work on `CC(C)(C)OC(=O)NCC(=O)NNc1ccc(N)cc1` yielded a melting point of 144 °C.
Compound `O=C1C=CC(c2ccccc2)C2(c3ccccc3)CN(C(=O)Cc3ccccc3)CC12` (racemic) has a melting point of 188 °C.
With `COC(=O)CSc1cccc(Br)n1` the melting point was 32 to 34 °C.
For `CC(C)N(CCC(CCN(C)C)(C(N)=O)c1ccc(F)cc1)C(C)C` (configuration not stated), the melting point was 78 to 80 °C.
Compound `Cc1cc(N)cnc1Oc1cccc(C(C)(C)C)c1` has a melting point of 83 to 84 °C.
Compound `Cc1c(CC(=O)NCCCO[N+](=O)[O-])cc(-c2ccc(S(C)(=O)=O)cc2)n1-c1ccc(F)cc1` has a melting point of 127 °C.
Work on `COC(=O)/C=C/C#Cc1cccc(S(=O)(=O)Nc2ccccc2)c1` yielded a melting point of 134 to 136 °C.
With `FC(F)(F)c1cccc(N2CCN(CCCCNc3cc(-c4ccccc4)ccn3)CC2)c1` the melting point was 120 °C.
`C[Si](C)(ON(Cc1ccccc1)Cc1ccccc1)ON(Cc1ccccc1)Cc1ccccc1` gave a melting point of 50 to 53 °C.
For `CN(C)CCCCCCOc1ccc(C(=O)CCc2ccccc2)cc1`, the melting point was 27 to 28 °C.
Compound `Fc1ccc(Cn2c(NC3CCN(CCc4cnccn4)CC3)nc3ccccc32)cc1` has a melting point of 165 °C.
For `CC(=O)OC1CC2=CCC3C4CCC(C(C)CCC=C(C)C)C4(C)CCC3C2(C)C(OC(C)=O)C1` (configuration not stated), the melting point was 133 to 134 °C.
Compound `FC(F)(F)c1cccc(Nc2nc(Cl)nc3nc[nH]c23)c1` has a melting point of 248 to 250 °C.
In the case of `CC1(N)CN(c2c(F)cc3c(=O)c(C(=O)O)cn(-c4ccc(F)cc4F)c3c2F)C1`, the melting point was 185 to 186 °C.
For `Cn1nnnc1CC(=O)c1ccc(C(F)(F)F)cc1N`, the melting point was 200 to 201 °C.
With `Cc1ccc2c(=O)[nH]sc2n1` the melting point was 187 to 190 °C.
`CC(C)NC(=O)N1C(=O)Cc2ccccc21` showed a melting point of 84 to 85.5 °C.
Work on `CCN(CC)c1ccc(CNc2cc(C(=O)Nc3ccccc3)ccc2OC)cc1` yielded a melting point of 180 to 181 °C.
Compound `O=CC1CC(O)c2ccccc2C1O` (configuration not stated) has a melting point of 145 °C.
With `CC(C)(CC(C)(c1ccccc1)c1ccc(O)c(C(=O)O)c1)c1ccccc1` (configuration not stated) the melting point was 153 to 155 °C.
For `NNc1nnc(Cl)cc1C(=O)O`, the melting point was 198 to 201 °C.
Work on `COCOc1cc(C(=O)O)n(Cc2ccc(C(F)(F)F)cc2Cl)n1` yielded a melting point of 133 to 134 °C.
With `O=C(Nc1ccc(F)cc1F)c1cccc(Cl)n1` the melting point was 86 to 87 °C.
Compound `CCc1ccc2c(c1)OC(C(F)(F)F)C(C(=O)O)=C2` (configuration not stated) has a melting point of 167 to 169 °C.
With `O=c1[nH]c2cccnc2n1-c1ccccc1` the melting point was 233 to 235 °C.
In the case of `CCOC(=O)N1CCOC(CNC(=O)c2cc(Cl)c(N)cc2OC)C1` (configuration not stated), the melting point was 140 to 151 °C.
In the case of `CC(=O)OC1CSC(Oc2ccc(-c3ccc(C(F)(F)F)cc3)nc2)C(OC(C)=O)C1OC(C)=O` (configuration not stated), the melting point was 178 to 180 °C.
For `CCC(CC)(CC(=O)Nc1cccc(/C=C/c2cccc(COCCCCc3ccc(C)cc3)n2)c1)C(=O)O`, the melting point was 114 to 116 °C.
With `CN1CCC(CNc2ncc3cc(-c4ccccc4Cl)c(=O)[nH]c3n2)CC1` the melting point was 213 to 220 °C.
`O=C1c2ccccc2S(=O)(=O)N1CCCCOc1ccccc1` showed a melting point of 92 to 94 °C.
`COc1ccc(-n2cccc2)c([N+](=O)[O-])c1` gave a melting point of 75.5 to 76.5 °C.
For `CC(=O)NC[C@H]1CN(c2ccc(N3CCC(n4nnc(N5CCN(Cc6ccccc6)CC5)n4)CC3)c(F)c2)C(=O)O1`, the melting point was 202 to 204 °C.
In the case of `COCC(Oc1ccc(-n2c(C)nc3cc(C(F)(F)F)ccc32)cc1)C(=O)O` (configuration not stated), the melting point was 111 to 112 °C.
In the case of `O=C(O)c1cnccc1CCCOc1cccnc1Oc1cccc(Cl)c1`, the melting point was 142 to 144 °C.
With `COC1=Cc2c(n(C)c(=O)n2C)CC1=NNC(=N)N` the melting point was 260 °C.
Compound `COC(=O)C1CC(O)CN1C(=O)c1ccc(OC)cc1` (configuration not stated) has a melting point of 92 °C.
Compound `c1ccc(Cn2cncc2-c2cnc(-c3ccccc3)nc2)cc1` has a melting point of 140 °C.
Compound `CC(C)C(NC(=O)N(C)Cc1ccccn1)C(=O)NC(Cc1ccccc1)C(O)C(Cc1ccccc1)NC(=O)C(NC(=O)N(C)Cc1ccccn1)C(C)C` (configuration not stated) has a melting point of 70 to 72 °C.
In the case of `O=C(c1ccc(F)cc1)C1CCN(CCCn2c(=O)sc3ccccc32)CC1`, the melting point was 83 °C.
With `COc1ccc(C2(C)Cc3cc(OCc4ccccc4)c(Cl)c(Cl)c3C2=O)cc1` (configuration not stated) the melting point was 115 to 119 °C.
Work on `C[C@@H]1Cc2ccsc2[C@H](C)N1CCNC(=O)c1ccc(NC(=O)C(C)(C)C)cc1` (relative stereo) yielded a melting point of 133 °C.
Compound `O=C(O)c1ccc(CNC(=O)C2Cc3ccccc3N2S(=O)(=O)c2ccc(-c3ccc(F)cc3OC(F)F)cc2)cc1` (configuration not stated) has a melting point of 92 to 97 °C.
Compound `CC(C)(C)OC(=O)N[C@H](C(=O)N1CCC[C@H]1C(=O)NC1CCc2nc(N)ncc2C1)C(c1ccccc1)c1ccccc1` (some centres not stated) has a melting point of 127 to 130 °C.
`O=C(CNS(=O)(=O)c1ccc2ccccc2c1)NCC(NC(=O)C1CCN(c2ccncc2)CC1)C(=O)C1CCCCN1` (configuration not stated) showed a melting point of 200 to 202 °C.
Work on `O=C1c2ccccc2C(=O)N1c1cccc(S(F)(F)(F)(F)F)c1` yielded a melting point of 188 to 190 °C.
`Cc1ccc(S(=O)(=S)OCCCCCCCCCCOS(=O)(=S)c2ccc(C)cc2)cc1` (configuration not stated) showed a melting point of 76 to 82 °C.
Work on `CC(C)(C)OC(=O)NC(CC(=O)NCCC(=O)OCc1ccccc1)C(=O)NCCC(=O)OCc1ccccc1` (configuration not stated) yielded a melting point of 109 to 110 °C.
Compound `CN1CCN(c2cc(Cl)cc3c2c(=O)n(CCc2ccccc2)c(=O)n3Cc2ccccc2)CC1` has a melting point of 136 to 138 °C.
In the case of `COc1ccc(CCNCC(O)c2ccc(C)s2)cc1OC` (configuration not stated), the melting point was 108 to 110 °C.
`CCOC(=O)c1c[nH]c2ccc(Cc3ccccc3)cc12` gave a melting point of 119 to 121 °C.
Compound `CCCCCCCCCCCCCCCc1cc2ccc(C(=O)O)cc2[nH]1` has a melting point of 140 to 142 °C.
For `COC(=O)c1ccc(Cl)cc1NC(=O)Cc1cccc(C#Cc2ccccc2)c1`, the melting point was 100 to 101 °C.
With `COC(=O)[C@H]1[C@@H](NC(=O)COc2ccccc2)C(=O)N1Cc1ccc(OC)cc1OC` (relative stereo) the melting point was 116 °C.
`Cc1c(N2C[C@H](C)[C@H](NC(=O)C(F)(F)F)C2)c(F)c(N)c2c(=O)c(C(=O)O)cn(C3CC3)c12` (relative stereo) showed a melting point of 253 to 254 °C.
In the case of `O=C(c1cccs1)c1cccn1N1C(=O)c2ccccc2C1=O`, the melting point was 165 to 166 °C.
With `COc1cc(C(=O)O)cc(OC)c1OC(C)=O` the melting point was 181 to 183 °C.
For `Cc1cc(SC2=C(O)CC(CCc3ccc(O)cc3)(C3CCCC3)OC2=O)c(C(C)(C)C)cc1OCCO` (configuration not stated), the melting point was 113 to 115 °C.
`O=C(O)CCS(=O)CCC(=O)O` showed a melting point of 114 °C.
With `CC(C)(CCc1nnn[nH]1)c1ccc(C(=O)Nc2cn3cc(-n4ccnc4)ccc3n2)cc1` the melting point was 266 to 267 °C.
Compound `COc1ccc(-c2nc(-c3ccc(Cl)cc3)ncc2C(=O)N2CCOCC2)cc1OC` has a melting point of 168 °C.
With `COc1cc(Nc2c(C#N)cnc3cc(/C=C/CCN(C)C)c(OC)cc23)c(Cl)cc1Cl` the melting point was 119 to 121 °C.
`CCC(=O)N[C@@H]1CCc2ccc(OC)cc2[C@H]1O` gave a melting point of 162 to 163 °C.
For `CC(C)C(=O)c1cccn1N1C(=O)c2ccccc2C1=O`, the melting point was 147 to 149 °C.
Compound `CC(C)(C)OC(=O)N(O)C(=O)[C@H](N)COCc1ccccc1` has a melting point of 128 to 130 °C.
In the case of `COc1ccc(C2CCN(C(=O)C(=O)O)CC2)cc1OC1CCCC1`, the melting point was 112 to 113 °C.
With `O=COCc1c(Cl)ccc2cc(Cl)cnc12` the melting point was 146 °C.
`COc1ccc(C2=NN(C3Cc4ccccc4C3)C(=O)[C@H]3CC=CC[C@@H]23)cc1OC` (relative stereo) showed a melting point of 163 to 164 °C.
`O=Cc1ccc(O)c(C=O)n1` gave a melting point of 144 °C.
Work on `CCCN=C(N)Nc1ccnc(SCCCC(=N)NC#N)n1` yielded a melting point of 210 to 215 °C.
Work on `CC(N1CCN(C=O)CC1)C(O)(Cn1cncn1)c1ccc(F)cc1F` (configuration not stated) yielded a melting point of 118 to 120 °C.
